{
  "source": "patent US8772321B2",
  "about": "“Heteroannelated anthraquinone derivatives for inhibiting cancers” (National Defense Medical Center, priority 2008, dated 2014)",
  "key": {"60 cancer cell lines": {"tested_on": "60 cancer cell lines", "test": "NCI 60-cell one dose screen, whole panel", "assay_type": "cell-based, human", "conditions": "10^−5M", "procedure": "NSC745885 was studied as a prototype for anti-proliferative activity against human cancer cell lines in NCI Drug Screen Program (Table 1, below). NSC745885 was evaluated in the full panel of human tumor cell lines derived from nine cancer cell types (leukemia, non-small cell lung cancer, colon cancer, CNS cancer, prostate cancer, melanoma, ovarian cancer, renal cancer and breast cancer). Each subpanel uses several cell lines and dose-response curves were drawn against the decadic logarithm (log 10) of the corresponding drug concentrations for each cell line by the subpanel group. They were also evaluated in the 60 cell line panel and anticancer assay was performed in accordance with the protocol of developmental therapeutics program (one dose mean graph). Results for each compound were reported as the proliferation percentage of the treated cells with that of the untreated control cells being 100. For each of these parameters the averaged values of mean graph midpoint (MG_MID) were calculated."}, "HL-60(TB)": {"tested_on": "HL-60(TB)", "test": "NCI 60-cell panel dose-response", "assay_type": "cell-based, human", "conditions": "HL-60(TB) (Leukemia)"}, "A549/ATCC": {"tested_on": "A549/ATCC", "test": "NCI 60-cell panel dose-response", "assay_type": "cell-based", "conditions": "Homo sapiens; A549/ATCC (Non-small cell lung cancer)"}, "HCC-2998": {"tested_on": "HCC-2998", "test": "NCI 60-cell panel dose-response", "assay_type": "cell-based", "conditions": "Homo sapiens; HCC-2998 (Colon cancer)"}, "HeLa cells [1]": {"tested_on": "HeLa cells", "test": "DNA damage, immunoblot of γ-phosphorylation of histone H2A.X", "assay_type": "cell-based, human", "conditions": "various doses, 12 hour", "procedure": "The anthracyclin antibiotic agent doxorubicin (DXR) is an active cytotoxic reagent with a wide range of clinical indications, including treatment of solid tumors in the ovary, breast, and gastrointestinal systems, as well as treatment of liquid tumors such as leukemia. […] Specifically, HeLa cells were treated with NSC745885 at various doses for 12 hour. The phosphorylation of γ-H2A.X was subsequently detected by the immunoblot.\n(§1) Cell lysates were prepared in lysis buffer (100 mM Tris-HCl pH 8.0, 150 mM NaCl, 0.1% SDS, and 1% Triton 100) at 4° C., separated by sodium dodecyl sulfate-polyacrylamide gel electrophoresis (SDS-PAGE), and then transferred onto a polyvinylidine difluoride membrane (Millipore, USA). Proteins were detected using antibodies against alpha actinin (ACTN), proliferating cell nuclear antigen (PCNA), p53, p21, cyclin B1, and cyclin D1 (Santa Cruz Biotechnology, USA), YH2A.X (EP854(2)Y, Epitomics, USA), cleaved caspase 3, cleaved poly(ADP-ribose) polymerase (PARP) and LC3B-II (Cell signaling, USA)."}, "HeLa cells [2]": {"tested_on": "HeLa cells", "test": "Cell cycle profile by FACS", "assay_type": "cell-based, human", "conditions": "dose- and time-dependent", "description": "Cell cycle arrest is an important damage surveillance mechanism. […] Treating the cells with NSC745885 caused 47-58% of cells to arrest in sub-G1, which is indicative of cell death. This effect was dose- and time-dependent (FIG. 3, Panel B)."}, "HeLa cells [3]": {"tested_on": "HeLa cells", "test": "Autophagy: LC3B-II immunoblot", "assay_type": "cell-based, human", "conditions": "12 hours", "procedure": "as §1\nAltered intracellular localization of LC3B (LC3B-I) and increased electrophoretic mobility of LC3B (LC3B-II) are correlated with recruitment to autophagic membranes and can be used as molecular markers for autophagic activation.\nIn FIG. 5A, HeLa cells were treated with the indicated concentrations of DXR, NSC745885 for 12 hours, and then cell lysates were analyzed by immunoblot using antibodies directed against LC3. The results are representative of three independent experiments."}, "HeLa cells [4]": {"tested_on": "HeLa cells", "test": "Senescence-associated β-galactosidase staining", "assay_type": "cell-based, human", "conditions": "2.5 μM for 24 hours, stained after 48 hours", "procedure": "Cultured cells were washed in PBS (pH 7.4), incubated in a solution of 2% formaldehyde/0.2% glutaraldehyde, and then incubated overnight at 37° C. in freshly prepared staining solution consisting of 1 mg/mL X-gal (5-bromo-4-chloro-3-indolyl-β-D-galactoside), 5 mM K3Fe(CN)6, 5 mM K4Fe(CN)6, 150 mM NaCl and 2 mM MgCl2 in 40 mM citric acid/sodium phosphate, pH 6.0. Following this incubation, cells were washed with water and examined by light microscopy at 200× magnification.\nIn FIGS. 5C and 5D, HeLa cells were incubated with 2.5 μM NSC745885 for 24 hours. After 48 hours, cells were subjected to SA-β-galactosidase staining (FIG. 5C) and approximately 100 stained cells were quantified (*P<0.05; ** P<0.01; *** P<0.005). NSC745885 induced senescence at a rate of 25% (P=0.0085 compared to DMSO). (FIG. 5D) LC3B-I fragments were observed when the cells were exposed to the drug for longer period of time (FIG. 5A, panel labeled as LE). […] We also treated Hela cells with the autophagy inducer spermidine (Spd) and vehicle (DMSO), which act as the positive and the negative control, respectively."}, "SV_UC—1": {"tested_on": "SV_UC—1", "test": "Cell toxicity in normal epithelial cell", "assay_type": "cell-based", "description": "To investigate the cell proliferation inhibition effect of NSC745885 in cancer cells, we compared the cancer cell proliferation inhibition effect of the NSC745885 with well-know bladder anti-cancer agent “Emodin” and clinical cancer chemical therapy agent “Doxorubicin”. The experiment bladder cancer cell lines includes T24 (FIG. 9A, 9D) and MBT2 (FIG. 9 B, 9E). We also confirm the NSC745885 cell toxicity using the non-cancer cell fibroblast 3T3 (FIG. 9C) and normal epithelial cell SV_UC—1 (FIG. 9F)."}, "telomerase": {"tested_on": "telomerase", "test": "PCR-based telomerase assay, TRAP (telomeric repeat amplification protocol)", "assay_type": "biochemical", "description": "Binding of low-molecular weight ligands to quadruplexes was first studied with the classic DNA intercalator ethidium and the telomere sequence T4G4 from Oxytricha. It is apparent that G-quadruplexes, with their unique structural, electrostatic and hydrogen bonding features, are the more likely targets for drug action rather than typical duplex or triplex DNA. […] To evaluate the effects of these derivatives on telomerase inhibition, we used PCR-based telomerase assay and TRAP (telomeric repeat amplification protocol) assay at a compound concentration of 100 μM."}, "SAS cells [5]": {"tested_on": "SAS cells", "test": "SAS cell proliferation / morphology", "assay_type": "cell-based", "conditions": "2.5 uM and 5 uM, 24 hours"}, "SAS cells [6]": {"tested_on": "SAS cells", "test": "SAS tumor xenograft in mouse", "assay_type": "in vivo", "conditions": "2 mg/kg/day, 10 days", "procedure": "Furthermore, we tested the effects of NSC745885 on tumor size in mouse. This experiment had two animal groups: one is administered after tumor xenograft transplantation with PBS (Control, FIG. 13, Panel A) and the other with NSC745885 (2 mg/kg/day, FIG. 13, Panel B). The mice were euthanized after 10 days and the tumor tissues were immediately isolated. […] (FIG. 13, Panel C)."}, "OVCAR-3": {"tested_on": "OVCAR-3", "test": "NCI 60-cell panel dose-response", "conditions": "Homo sapiens, OVCAR-3, read-out: LC50"}},
  "data": [
    {"compound": "O=C1c2ccccc2C(=O)c2c1ccc1nsnc21", "note": "[NSC745885, anthra[2,1-c][1,2,5]thiadiazole-6,11-dione]", "values": [
      {"measurement": "proliferation percentage, Delta", "setting": "60 cancer cell lines; delta of the one dose mean graph", "result": 102.68, "unit": "%"},
      {"measurement": "proliferation percentage, Mean", "setting": "60 cancer cell lines; mean over the cell lines", "result": 2.68, "unit": "%"},
      {"measurement": "proliferation percentage, Range", "setting": "60 cancer cell lines; range over the cell lines", "result": 230.09, "unit": "%"},
      {"measurement": "GI50", "setting": "HL-60(TB)", "result": 0.16, "unit": "µM"},
      {"measurement": "TGI", "setting": "HL-60(TB)", "result": 0.40, "unit": "µM"},
      {"measurement": "GI50", "setting": "A549/ATCC", "result": 14.7, "unit": "µM"},
      {"measurement": "GI50", "setting": "HCC-2998", "result": 16.4, "unit": "µM"},
      {"measurement": "DNA damage (phosphorylation of γ-H2A.X, immunoblot)", "setting": "HeLa cells [1]", "result": "strongly induced DNA damage"},
      {"measurement": "cells arrested in sub-G1", "setting": "HeLa cells [2]", "result": "47-58%"},
      {"measurement": "LC3B-II fragment formation (autophagic activation)", "setting": "HeLa cells [3]", "result": "LC3B-II fragment formation"},
      {"measurement": "senescence rate (SA-β-galactosidase staining)", "setting": "HeLa cells [4]", "result": 25, "unit": "%"},
      {"measurement": "cell toxicity in normal cell", "setting": "SV_UC—1", "result": "no cell toxicity"},
      {"measurement": "telomerase activity (TRAP lane pattern)", "setting": "telomerase; 100 μM, H1299 cell extract", "result": "little different from positive control"},
      {"measurement": "telomerase inhibitory activity level", "setting": "telomerase; H1299 cells, TRAP", "result": "activity at the micromolar level"},
      {"measurement": "SAS cells proliferation", "setting": "SAS cells [5]", "result": "significantly inhibit"},
      {"measurement": "body weight", "setting": "SAS cells [6]", "result": "not significantly decreased"},
      {"measurement": "tumor size", "setting": "SAS cells [6]; versus PBS control", "result": "reduced"},
      {"measurement": "CC50", "setting": "OVCAR-3", "result": 11.1, "unit": "µM"}
    ]}
  ]
}
